Laboratory results taken from patent publication US20140024613A1, “Methods for Treating HCV” (AbbVie Inc., priority 2012, published 2014).

Legend:
[1] = known effect of ritonavir, FDA approved Kaletra Drug Label May 2012; cited from earlier work
[2] = parameters: species or system HCV patients (human); settings: in vivo
Text: Ritonavir-boosted HIV protease inhibitors are associated with increases in serum lipids. See FIG. 1, where LPV refers to lopinavir, “/r” refers to co-administration with ritonavir (e.g., LPV/r refers to lopinavir co-administered with ritonavir). DRV refers to darunavir, ATV refers to atazanavir, FPV refers to fosamprenavir, FTC refers to emtricitabine, TDF refers to tenofovir disoproxil fumarate, […], 3TC refers to lamivudine, TC refers to total cholesterol, and TG refers to total triglycerides. These increase in cholesterol and triglycerides may be related to inhibition of the proteasome, which is involved in degradation of proteins related to lipid metabolism. However, the impact of ritonavir-boosted HCV treatments on lipid levels has not been studied. The purpose of this Example was to examine the lipid levels of HCV patients during 12 weeks of treatment with ritonavir-containing, interferon-free regimens. […]
Fasting total cholesterol (TC) and triglycerides (TG) were measured at each study visit. The number of subjects with baseline low or normal TC or TG who shifted to high TC or TG were calculated using NCEP cut-offs. Lipid fractions were not measured.

total cholesterol and triglyceride levels [2]: not elevated
SMILES: CC(C)c1nc(CN(C)C(=O)N[C@H](C(=O)N[C@@H](Cc2ccccc2)C[C@H](O)[C@H](Cc2ccccc2)NC(=O)OCc2cncs2)C(C)C)cs1 [ritonavir]
cholesterol and triglyceride levels [1]: elevated cholesterol and triglyceride levels
